Article PMC8459971, “Evaluation of the hepatotoxicity of the novel GPR40 (FFAR1) agonist CPL207280 in the rat and monkey” (PLoS ONE, 2021)
“And” between values parts separate entries of the source, which are not always exact repeats. Equal values may be shown once.

Tests used:
HepG2 cells = assay: Respiration in hepatocytes (Seahorse XF Mito stress test); assay type: cell-based, human
[1] = Stability in microsomes, rat; assay type: in vitro ADME; settings: for average DEG [%]: rat microsomes, with cofactors
Method: (§1) The final incubation volume was 500 μL. Two control compounds (verapamil and donepezil) were included for each microsomal species, along with the appropriate vehicle control. The reactions were terminated by transferring 50 μL of incubate to 100 μL methanol containing an internal standard (metoprolol) at appropriate time points (0, 10, 20, 40, 60, and 120 min for the test compound and 0, 5, 10, 20, 40, and 60 min for the control compounds). The termination plates were centrifuged at 4000 x g at 4°C for 30 min to precipitate the protein. The supernatants were then collected for analysis, and LC-MS/MS was used for detection purposes. The system consisted of an Acquity™ Binary Solvent Manager, Acquity™ 4-position heated column manager, 2777 Ultra High Pressure Autosampler, and a Xevo-TQ MS triple quadrupole mass spectrometer (Waters Ltd., Herts, UK). This process was carried out twice.

[2] = Stability in microsomes, mouse; assay type: in vitro ADME; settings: for average DEG [%]: mouse microsomes, with cofactors
Method: as §1

NTCP = target: T1, NTCP (Homo sapiens, UniProt Q14973); assay: Uptake transporter inhibition assay, NTCP; assay type: cell-based; settings: for Accumulation (counts per minute; CPM) HEK293-NTCP / Accumulation (counts per minute; CPM) HEK293FT-MOCK: NTCP
T1 construct: expressed in transfected cells; host or cells: HEK cells
T1 sequence (Q14973 1-349): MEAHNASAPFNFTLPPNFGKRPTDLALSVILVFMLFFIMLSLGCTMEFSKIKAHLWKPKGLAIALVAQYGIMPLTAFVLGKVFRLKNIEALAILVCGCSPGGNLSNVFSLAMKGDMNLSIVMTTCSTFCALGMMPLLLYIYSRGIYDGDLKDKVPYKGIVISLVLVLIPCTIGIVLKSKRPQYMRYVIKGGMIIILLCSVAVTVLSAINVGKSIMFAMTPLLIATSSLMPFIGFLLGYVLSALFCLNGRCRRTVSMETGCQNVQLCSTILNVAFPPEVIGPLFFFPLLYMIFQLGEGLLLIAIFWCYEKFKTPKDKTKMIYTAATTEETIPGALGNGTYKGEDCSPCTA
Method: For the uptake transporter inhibition assay, cells were washed twice with 100 μL of the appropriate buffer (HK, pH 7.4) for OATP1B1, followed by HBSS (pH 7.4) for (NTCP, OAT1, OAT2v1, OATP1A2, and OATP1B3). Uptake experiments were carried out at 37 ± 1°C in 50 μL of the respective buffer containing the probe substrate and the compound or solvent.

MRP3 = MRP3 (Homo sapiens, UniProt O15438); assay: Vesicular transport inhibition assay, MRP3; settings: for Accumulation (counts per minute; CPM) with AMP / Accumulation (counts per minute; CPM) with ATP: MRP3;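 further: membrane vesicles with radiolabelled probe substrate and 2 mM glutathione, 4 mM ATP versus AMP background control, vesicle-trapped substrate quantified by liquid scintillation counting after filtration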;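 on Accumulation (counts per minute; CPM) with AMP: ATP 4 mM vs AMP background separates transporter uptake from diffusion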;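 on Accumulation (counts per minute; CPM) with ATP: ATP 4 mM vs AMP background separates transporter uptake from diffusion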
Chain of MRP3 (O15438 whole entry, the tested form may be a part): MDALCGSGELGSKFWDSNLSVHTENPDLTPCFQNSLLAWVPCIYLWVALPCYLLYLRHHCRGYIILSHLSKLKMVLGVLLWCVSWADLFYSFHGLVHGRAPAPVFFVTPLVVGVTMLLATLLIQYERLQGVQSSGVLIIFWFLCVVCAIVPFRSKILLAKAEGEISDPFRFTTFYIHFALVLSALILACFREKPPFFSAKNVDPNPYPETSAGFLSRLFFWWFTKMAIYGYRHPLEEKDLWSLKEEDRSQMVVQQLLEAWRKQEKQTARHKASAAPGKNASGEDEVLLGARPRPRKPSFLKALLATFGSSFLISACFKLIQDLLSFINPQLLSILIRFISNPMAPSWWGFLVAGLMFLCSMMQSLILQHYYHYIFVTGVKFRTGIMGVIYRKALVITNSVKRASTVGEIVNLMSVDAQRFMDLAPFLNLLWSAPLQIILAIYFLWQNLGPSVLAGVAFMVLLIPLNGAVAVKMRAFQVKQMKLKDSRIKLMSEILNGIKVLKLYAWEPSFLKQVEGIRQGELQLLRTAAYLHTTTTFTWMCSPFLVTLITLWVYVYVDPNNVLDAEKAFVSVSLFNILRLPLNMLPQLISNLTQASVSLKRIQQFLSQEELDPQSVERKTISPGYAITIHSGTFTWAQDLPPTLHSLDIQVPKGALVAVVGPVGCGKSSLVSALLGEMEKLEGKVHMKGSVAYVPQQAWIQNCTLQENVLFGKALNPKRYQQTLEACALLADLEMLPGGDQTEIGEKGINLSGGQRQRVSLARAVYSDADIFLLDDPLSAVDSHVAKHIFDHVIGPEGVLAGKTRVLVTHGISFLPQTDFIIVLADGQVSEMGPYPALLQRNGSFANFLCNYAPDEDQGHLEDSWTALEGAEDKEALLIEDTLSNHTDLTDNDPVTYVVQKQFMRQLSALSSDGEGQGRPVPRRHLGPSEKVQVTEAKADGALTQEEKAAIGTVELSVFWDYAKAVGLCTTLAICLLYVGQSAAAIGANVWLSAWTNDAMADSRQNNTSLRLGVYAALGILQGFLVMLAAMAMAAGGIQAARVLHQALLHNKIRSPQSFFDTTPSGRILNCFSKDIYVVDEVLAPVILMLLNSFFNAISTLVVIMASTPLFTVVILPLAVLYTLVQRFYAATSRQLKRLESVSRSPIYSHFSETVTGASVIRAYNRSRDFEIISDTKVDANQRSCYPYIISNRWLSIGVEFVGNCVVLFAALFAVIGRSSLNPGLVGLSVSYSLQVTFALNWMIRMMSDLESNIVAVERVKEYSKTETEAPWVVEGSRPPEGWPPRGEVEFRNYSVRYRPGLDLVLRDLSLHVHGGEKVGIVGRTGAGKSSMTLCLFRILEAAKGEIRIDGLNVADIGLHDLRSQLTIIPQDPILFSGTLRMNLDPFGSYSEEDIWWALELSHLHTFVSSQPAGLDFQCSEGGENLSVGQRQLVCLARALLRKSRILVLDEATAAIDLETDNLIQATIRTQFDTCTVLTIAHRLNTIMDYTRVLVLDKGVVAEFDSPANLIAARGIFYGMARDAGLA
Method: In the vesicular transport inhibition assay (for BSEP, MRP) compounds were incubated with membrane vesicle preparations and the probe substrate. Incubations were carried out in the presence of 4 mM ATP or AMP to distinguish between transporter-mediated uptake and passive diffusion into the vesicles. For MRP2 and MRP3, reactions were carried out in the presence of 2 mM glutathione. Compounds were added to the reaction mixture in 0.75 μL of solvent (1% of the final incubation volume). […] Reactions were initiated by the addition of 25 μL of 12 mM MgATP (or 12 mM AMP in assay buffer as a background control) and preincubated separately. Reactions were quenched by the addition of 200 μL of ice-cold washing buffer and immediate filtration via glass fiber filters mounted on a 96-well plate (filter plate). The filters were washed (5 × 200 μL of ice-cold washing buffer), dried, and the amount of substrate inside the filtered vesicles was determined by liquid scintillation counting.

OATP1B1 = target: T2, OATP1B1 (Homo sapiens, UniProt Q9Y6L6); assay: Uptake transporter inhibition assay, OATP1B1
T2 sequence (Q9Y6L6 1-691): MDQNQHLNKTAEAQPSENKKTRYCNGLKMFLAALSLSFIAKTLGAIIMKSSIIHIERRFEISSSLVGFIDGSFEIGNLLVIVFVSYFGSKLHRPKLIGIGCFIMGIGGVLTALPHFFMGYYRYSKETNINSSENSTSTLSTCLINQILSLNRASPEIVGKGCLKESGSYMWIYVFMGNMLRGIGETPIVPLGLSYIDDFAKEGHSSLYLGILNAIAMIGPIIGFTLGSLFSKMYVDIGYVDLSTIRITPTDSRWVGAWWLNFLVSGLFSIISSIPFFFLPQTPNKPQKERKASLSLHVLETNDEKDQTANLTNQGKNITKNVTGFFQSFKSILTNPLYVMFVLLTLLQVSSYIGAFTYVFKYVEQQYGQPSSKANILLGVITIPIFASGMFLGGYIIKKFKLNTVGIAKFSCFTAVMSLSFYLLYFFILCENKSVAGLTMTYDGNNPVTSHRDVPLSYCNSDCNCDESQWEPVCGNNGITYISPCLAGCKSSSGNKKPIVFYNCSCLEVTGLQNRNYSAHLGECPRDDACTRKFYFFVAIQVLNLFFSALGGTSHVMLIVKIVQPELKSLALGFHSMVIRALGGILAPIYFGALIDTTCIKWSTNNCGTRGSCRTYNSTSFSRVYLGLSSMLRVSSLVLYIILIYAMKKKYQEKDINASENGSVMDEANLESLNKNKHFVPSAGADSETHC
Method: For the uptake transporter inhibition assay, cells were washed twice with 100 μL of the appropriate buffer (HK, pH 7.4) for OATP1B1, followed by HBSS (pH 7.4) for (NTCP, OAT1, OAT2v1, OATP1A2, and OATP1B3). Uptake experiments were carried out at 37 ± 1°C in 50 μL of the respective buffer containing the probe substrate and the compound or solvent. […] After the experiment, cells were washed twice with 100 μL of cold appropriate buffer and lysed with 50 μL of 0.1 M NaOH. Radiolabeled probe substrate transport was determined by measuring an aliquot (35 μL) from each well for liquid scintillation counting.

[3] = Rat (Sprague Dawley) microsomes, mean n = 2
[4] = Mouse (CD) microsomes, mean n = 2

With Cc1cc(OCCCS(C)(=O)=O)cc(C)c1-c1cccc(COc2ccc3c(c2)OC[C@H]3CC(=O)O)c1 [TAK-875, fasiglifam, reference compound] the “oxygen consumption rate, mito stress tracing” value (HepG2 cells; Fig2 B, HepG2, 0,3 uM, 61.3509 min) was 201.605, the “ECAR (Extracellular Acidification Rate)” value (HepG2 cells; HepG2, 30 uM, replicates) was 1.734 and the “effect on maximal respiratory capacity after FCCP” value (HepG2 cells; HepG2, Seahorse XF) was “dose-dependent reduction in maximal respiratory capacity”. For the same compound, the EC50 (HepG2 cells; Homo sapiens, HepG2, Seahorse XF, read-out: EC50 of acidification of media (ECAR)) was 46 µM, the half-life at 3 μM [1, 3] was 1.98 h and the microsomal CLint at 3 μM [1, 3] was 11.6 µL/min/mg. The “average DEG [%]” value ([1]; 0 min) was 100.0%, the “average DEG [%]” value ([1]; 20 min) was 81.3% and the “average DEG [%]” value ([1]; 40 min) was 79.5%. For the same compound, the “average DEG [%]” value ([1]; 60 min) was 68.4%, the half-life at 3 μM [2, 4] was 5.72 h and the microsomal CLint at 3 μM [2, 4] was 4 µL/min/mg. For the same compound, the “average DEG [%]” value ([2]; 0 min) was 100.0%, the “average DEG [%]” value ([2]; 20 min) was 83.6% and the “average DEG [%]” value ([2]; 40 min) was 92.9%. For the same compound, the “average DEG [%]” value ([2]; 60 min) was 79.0%, the “Accumulation (counts per minute; CPM) HEK293-NTCP” value (NTCP; conc 0.10 µM) was 4946 CPM and 5522 CPM and the “Accumulation (counts per minute; CPM) HEK293FT-MOCK” value (NTCP; conc 0.10 µM) was 31 CPM and 28 CPM. For the same compound, the “Accumulation (counts per minute; CPM) HEK293-NTCP” value (NTCP; conc 0.30 µM) was 4754 CPM and 4976 CPM, the “Accumulation (counts per minute; CPM) HEK293FT-MOCK” value (NTCP; conc 0.30 µM) was 28 CPM and 36 CPM and the “Accumulation (counts per minute; CPM) HEK293-NTCP” value (NTCP; conc 1.00 µM) was 4452 CPM and 4849 CPM. For the same compound, the “Accumulation (counts per minute; CPM) HEK293FT-MOCK” value (NTCP; conc 1.00 µM) was 23 CPM and 31 CPM, the “Accumulation (counts per minute; CPM) HEK293-NTCP” value (NTCP; conc 3.00 µM) was 4304 CPM and 4641 CPM and the “Accumulation (counts per minute; CPM) HEK293FT-MOCK” value (NTCP; conc 3.00 µM) was 25 CPM and 22 CPM. For the same compound, the “Accumulation (counts per minute; CPM) HEK293-NTCP” value (NTCP; conc 10.00 µM) was 3509 CPM and 4053 CPM, the “Accumulation (counts per minute; CPM) HEK293FT-MOCK” value (NTCP; conc 10.00 µM) was 28 CPM and 26 CPM and the “Accumulation (counts per minute; CPM) HEK293-NTCP” value (NTCP; conc 30.00 µM) was 2661 CPM and 2656 CPM. For the same compound, the “Accumulation (counts per minute; CPM) HEK293FT-MOCK” value (NTCP; conc 30.00 µM) was 25 CPM and 30 CPM, the “Accumulation (counts per minute; CPM) HEK293-NTCP” value (NTCP; conc 100.00 µM) was 1608 CPM and 1569 CPM and the “Accumulation (counts per minute; CPM) HEK293FT-MOCK” value (NTCP; conc 100.00 µM) was 25 CPM and 33 CPM. The IC50 (NTCP; transformed HEK cells, up to 300μM, n = 2) was 53.1 µM, the IC50 (MRP3) was 31.8 µM and the “Accumulation (counts per minute; CPM) with AMP” value (MRP3; conc 0.07 µM) was 151 CPM and 146 CPM. For the same compound, the “Accumulation (counts per minute; CPM) with ATP” value (MRP3; conc 0.07 µM) was 3266 CPM and 3317 CPM, the “Accumulation (counts per minute; CPM) with AMP” value (MRP3; conc 0.21 µM) was 149 CPM and 132 CPM and the “Accumulation (counts per minute; CPM) with ATP” value (MRP3; conc 0.21 µM) was 3233 CPM and 3776 CPM. The “Accumulation (counts per minute; CPM) with AMP” value (MRP3; conc 0.62 µM) was 197 CPM and 169 CPM, the “Accumulation (counts per minute; CPM) with ATP” value (MRP3; conc 0.62 µM) was 3398 CPM and 3538 CPM and the “Accumulation (counts per minute; CPM) with AMP” value (MRP3; conc 16.67 µM) was 238 CPM and 245 CPM. For the same compound, the “Accumulation (counts per minute; CPM) with ATP” value (MRP3; conc 16.67 µM) was 2701 CPM and 2568 CPM, the “Accumulation (counts per minute; CPM) with AMP” value (MRP3; conc 50.00 µM) was 232 CPM and 210 CPM and the “Accumulation (counts per minute; CPM) with ATP” value (MRP3; conc 50.00 µM) was 1204 CPM and 1302 CPM. It also gave an IC50 (OATP1B1) of 0.49 µM.
